In publication PMC7029632, “Routing Nanomolar Protein Cargoes to Lipid Raft‐Mediated/Caveolar Endocytosis through a Ganglioside GM1‐Specific Recognition Tag” (Advanced Science, 2020):

What was measured:
ganglioside GM1 = assay: ITC titration with GM1:DPC 1:5 bicelles; details: two-independent-binding-site model, pH 7.2 phosphate, 35 °C, read-out: K D toward GM1 (tagged NeutrAvidin)
HeLa cells = assay: Flow cytometry (FACS) uptake of NA constructs and fluorescently labeled sequences, HeLa; details: 1 µM cargo, 1 h, 37 °C, MEM+1% FBS, trypan blue quencher, triplicate
Jurkat cells = assay: Uptake in competition with galectin-1, flow cytometry; format: cell-based, human; details: only at concentrations orders of magnitude higher than serum galectin-1 level (6.7 nM)
[1] = cited from earlier work
Text: Helenius and Pelkmans pointed out that multivalent binding/clustering of ganglioside GM1 is necessary to trigger lipid raft‐mediated/caveolar endocytosis,9 and the tetravalent nature of our model carrier–cargo complex is consistent with this observation. On the other hand, the number of copies of the carrier sequence required for endocytosis can be crucial, especially if the carrier–cargo complex is produced by recombinant synthesis. […] CFU‐Penetratin, which has ...

Substance	Kd (ganglioside GM1)	level of uptake by FACS (HeLa cells)	inhibition of GM1–WYKYW interaction by galectin-1 (Jurkat cells)	affinity for terminal digalactosides [1]
NA(biotinyl‐PEG‐WYKYW)4	14.5 ± 1.7 nM	similar		
galectin‐1: protein binding terminal digalactosides, used as inhibitor			competitive inhibitor of the GM1–WYKYW interaction	micromolar affinity
